# Results as given in PubChem BioAssay (NCI).
#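 A five-concentration, 48-hour dose response in 96-well plates underlies each endpoint, interpolated linearly between surrounding concentrations. GI50 = concentration required for 50% inhibition of growth. TGI is the concentration that stops growth completely.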
# How the values were obtained:
# Assay in all cases: NCI anticancer screen, dose series, 48 h
# [1] = test system: CCRF-CEM leukemia
# [2] = test system: COLO 205 colon
# [3] = test system: RXF 393 renal
# [4] = test system: ACHN renal
# [5] = test system: SN12C renal
# [6] = test system: DU-145 prostate
# [7] = test system: MALME-3M melanoma
# [8] = test system: UACC-62 melanoma
# [9] = test system: HS 578T breast
# [10] = test system: OVCAR-5 ovarian
# [11] = test system: SW-620 colon
# [12] = test system: A549 NSCLC
# [13] = test system: 786-0 renal
# [14] = test system: T-47D breast
# [15] = test system: SF-539 CNS
# [16] = test system: EKVX NSCLC
# [17] = test system: NCI-H522 lung
# [18] = test system: SNB-19 CNS
# [19] = test system: PC-3 prostate
# [20] = test system: HCT-116 colon
# [21] = test system: HT29 colon
# [22] = test system: SK-MEL-2 melanoma
# [23] = test system: NCI-H23 lung
# [24] = test system: NCI-H460 lung
# [25] = test system: SF-268 CNS
# [26] = test system: NCI-H226 lung
# [27] = test system: OVCAR-8 ovarian
# [28] = test system: KM12 colon
# [29] = test system: MOLT-4 leukemia
# [30] = test system: HOP-62 NSCLC
# [31] = test system: MDA-MB-435
# [32] = test system: MDA-MB-231 breast
# [33] = test system: HCT-15 colon
# [34] = test system: A498 renal
# [35] = test system: NCI/ADR-RES ovarian
# [36] = test system: HL-60(TB) leukemia
# [37] = test system: U251 CNS
# [38] = test system: SK-MEL-5 melanoma
# [39] = test system: K-562 leukemia
# [40] = test system: IGROV1 ovarian
# [41] = test system: SR leukemia
# [42] = test system: HCC-2998 colon
# [43] = test system: UO-31 renal
# [44] = test system: CAKI-1 renal
# [45] = test system: RPMI-8226 leukemia
# [46] = test system: SK-MEL-28 melanoma
# [47] = test system: OVCAR-3 ovarian
# [48] = test system: SK-OV-3 ovarian
# [49] = test system: MDA-N
# [50] = test system: TK-10 renal
# [51] = test system: HOP-92 NSCLC
# [52] = test system: M14 melanoma
# [53] = test system: OVCAR-4 ovarian
# [54] = test system: SNB-75 CNS
# [55] = test system: SF-295 CNS
# [56] = test system: LOX IMVI melanoma
# [57] = test system: MCF7 breast
# [58] = test system: UACC-257 melanoma
# [59] = test system: BT-549 breast
compound,measurement,setting,value
CNC(=O)/C(C#N)=C(\N)N1CCCC1,TGI,[1],> 100 µM
same,TGI,[2],> 100 µM
same,TGI,[3],> 100 µM
same,TGI,[4],> 100 µM
same,TGI,[5],> 100 µM
same,TGI,[6],> 100 µM
same,TGI,[7],> 100 µM
same,TGI,[8],> 100 µM
same,TGI,[9],> 100 µM
same,TGI,[10],> 100 µM
same,TGI,[11],> 100 µM
same,TGI,[12],> 100 µM
same,TGI,[13],> 100 µM
same,TGI,[14],> 100 µM
same,TGI,[15],> 100 µM
same,TGI,[16],> 100 µM
same,TGI,[17],> 100 µM
same,TGI,[18],> 100 µM
same,TGI,[19],> 100 µM
same,TGI,[20],> 100 µM
same,TGI,[21],> 100 µM
same,TGI,[22],> 100 µM
same,TGI,[23],> 100 µM
same,TGI,[24],> 100 µM
same,TGI,[25],> 100 µM
same,TGI,[26],> 100 µM
same,TGI,[27],> 100 µM
same,TGI,[28],> 100 µM
same,TGI,[29],> 100 µM
same,TGI,[30],> 100 µM
same,TGI,[31],> 100 µM
same,TGI,[32],> 100 µM
same,TGI,[33],> 100 µM
same,TGI,[34],> 100 µM
same,TGI,[35],> 100 µM
same,TGI,[36],> 100 µM
same,TGI,[37],> 100 µM
same,TGI,[38],> 100 µM
same,TGI,[39],> 100 µM
same,TGI,[40],> 100 µM
same,TGI,[41],> 100 µM
same,TGI,[42],> 100 µM
same,TGI,[43],> 100 µM
same,TGI,[44],> 100 µM
same,TGI,[45],> 100 µM
same,TGI,[46],> 100 µM
same,TGI,[47],> 100 µM
same,TGI,[48],> 100 µM
same,TGI,[49],> 100 µM
same,TGI,[50],> 100 µM
CN(C)CCNC(=O)c1cccc2c(NC(CCCN=C(N)N)C(=O)O)c3ccccc3nc12 (configuration not stated),TGI,[1],> 100 µM
same,TGI,[2],> 100 µM
same,TGI,[4],> 100 µM
same,TGI,[5],> 100 µM
same,TGI,[6],> 100 µM
same,TGI,[7],23.4 µM
same,TGI,[8],60 µM
same,TGI,[9],33.2 µM
same,TGI,[10],> 100 µM
same,TGI,[51],51.1 µM
same,TGI,[11],> 100 µM
same,TGI,[12],> 100 µM
same,TGI,[13],> 100 µM
same,TGI,[52],> 100 µM
same,TGI,[16],30.1 µM
same,TGI,[17],29.5 µM
same,TGI,[18],47 µM
same,TGI,[19],> 100 µM
same,TGI,[20],67.8 µM
same,TGI,[53],27.7 µM
same,TGI,[21],14.1 µM
same,TGI,[22],38.4 µM
same,TGI,[23],30.5 µM
same,TGI,[25],27.7 µM
same,TGI,[26],22.8 µM
same,TGI,[27],30.5 µM
same,TGI,[28],61.5 µM
same,TGI,[29],> 100 µM
same,TGI,[30],90.8 µM
same,TGI,[31],41.6 µM
same,TGI,[32],> 100 µM
same,TGI,[33],> 100 µM
same,TGI,[54],34.5 µM
same,TGI,[34],61.3 µM
same,TGI,[35],25.1 µM
same,TGI,[36],> 100 µM
same,TGI,[37],> 100 µM
same,TGI,[38],> 100 µM
same,TGI,[39],> 100 µM
same,TGI,[40],64.7 µM
same,TGI,[41],> 100 µM
same,TGI,[43],> 100 µM
same,TGI,[55],41.9 µM
same,TGI,[45],> 100 µM
same,TGI,[46],89.2 µM
same,TGI,[47],> 100 µM
same,TGI,[56],> 100 µM
same,TGI,[48],> 100 µM
same,TGI,[49],> 100 µM
same,TGI,[50],> 100 µM
same,TGI,[57],> 100 µM
CC(=O)Nc1ccc2c(c1)[nH]c(=O)c1cc(NC(C)=O)ccc12,GI50,[1],53.5 µM
same,TGI,[1],> 100 µM
same,GI50,[2],> 100 µM
same,TGI,[2],> 100 µM
same,GI50,[3],> 100 µM
same,TGI,[3],> 100 µM
same,GI50,[4],> 100 µM
same,TGI,[4],> 100 µM
same,GI50,[5],> 100 µM
same,TGI,[5],> 100 µM
same,GI50,[6],> 100 µM
same,TGI,[6],> 100 µM
same,GI50,[7],> 100 µM
same,TGI,[7],> 100 µM
same,GI50,[8],> 100 µM
same,TGI,[8],> 100 µM
same,GI50,[9],> 100 µM
same,TGI,[9],> 100 µM
same,GI50,[10],> 100 µM
same,TGI,[10],> 100 µM
same,GI50,[51],31.9 µM
same,TGI,[51],> 100 µM
same,GI50,[58],> 100 µM
same,TGI,[58],> 100 µM
same,GI50,[11],> 100 µM
same,TGI,[11],> 100 µM
same,GI50,[12],> 100 µM
same,TGI,[12],> 100 µM
same,GI50,[13],> 100 µM
same,TGI,[13],> 100 µM
same,GI50,[52],> 100 µM
same,TGI,[52],> 100 µM
same,GI50,[14],> 100 µM
same,TGI,[14],> 100 µM
same,GI50,[15],> 100 µM
same,TGI,[15],> 100 µM
same,GI50,[16],> 100 µM
same,TGI,[16],> 100 µM
same,GI50,[17],> 100 µM
same,TGI,[17],> 100 µM
same,GI50,[18],> 100 µM
same,TGI,[18],> 100 µM
same,GI50,[19],> 100 µM
same,TGI,[19],> 100 µM
same,GI50,[20],> 100 µM
same,TGI,[20],> 100 µM
same,GI50,[53],> 100 µM
same,TGI,[53],> 100 µM
same,GI50,[21],> 100 µM
same,TGI,[21],> 100 µM
same,GI50,[22],> 100 µM
same,TGI,[22],> 100 µM
same,GI50,[23],> 100 µM
same,TGI,[23],> 100 µM
same,GI50,[24],> 100 µM
same,TGI,[24],> 100 µM
same,GI50,[25],> 100 µM
same,TGI,[25],> 100 µM
same,GI50,[26],> 100 µM
same,TGI,[26],> 100 µM
same,GI50,[27],> 100 µM
same,TGI,[27],> 100 µM
same,GI50,[28],> 100 µM
same,TGI,[28],> 100 µM
same,GI50,[29],20 µM
same,TGI,[29],50 µM
same,GI50,[30],> 100 µM
same,TGI,[30],> 100 µM
same,GI50,[31],> 100 µM
same,TGI,[31],> 100 µM
same,GI50,[32],90.2 µM
same,TGI,[32],> 100 µM
same,GI50,[33],> 100 µM
same,TGI,[33],> 100 µM
same,GI50,[54],41.2 µM
same,TGI,[54],> 100 µM
same,GI50,[34],> 100 µM
same,TGI,[34],> 100 µM
same,GI50,[35],> 100 µM
same,TGI,[35],> 100 µM
same,GI50,[36],26.6 µM
same,TGI,[36],> 100 µM
same,GI50,[37],52 µM
same,TGI,[37],> 100 µM
same,GI50,[38],> 100 µM
same,TGI,[38],> 100 µM
same,GI50,[59],> 100 µM
same,TGI,[59],> 100 µM
same,GI50,[39],59.5 µM
same,TGI,[39],> 100 µM
same,GI50,[40],> 100 µM
same,TGI,[40],> 100 µM
same,GI50,[41],15.5 µM
same,TGI,[41],53.4 µM
same,GI50,[42],> 100 µM
same,TGI,[42],> 100 µM
same,GI50,[43],> 100 µM
same,TGI,[43],> 100 µM
same,GI50,[55],> 100 µM
same,TGI,[55],> 100 µM
same,GI50,[44],> 100 µM
same,TGI,[44],> 100 µM
same,GI50,[45],> 100 µM
same,TGI,[45],> 100 µM
same,GI50,[46],> 100 µM
same,TGI,[46],> 100 µM
same,GI50,[47],> 100 µM
same,TGI,[47],> 100 µM
same,GI50,[56],> 100 µM
same,TGI,[56],> 100 µM
same,GI50,[48],> 100 µM
same,TGI,[48],> 100 µM
same,GI50,[50],> 100 µM
same,TGI,[50],> 100 µM
same,GI50,[57],> 100 µM
same,TGI,[57],> 100 µM
